Laboratory results: the supplement of paper PMC10307832

Legend:
Assay in all cases: relative viability (nuclei count vs DMSO), 5 days (fraction); higher = more cells survive
[1] = compound: CC1=C(C=CC(=C1)[N+](=O)[O-])NS(=O)(=O)C2=C(C=CC(=C2)Cl)Cl [FH535] + Nc1nc2[nH]cc(CCc3ccc(C(=O)N[C@@H](CCC(=O)O)C(=O)O)cc3)c2c(=O)[nH]1 [Pemetrexed] (partner 0.2 µM)
Summary of the method: (§1)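 A single step with final 0.05% Triton X-100, 1% formaldehyde and 1 ug/ml Hoechst fixed the cells and stained nuclei 5 days after treatment. Lung cancer cell lines in 1536-well plates had been treated by pin tool the day after seeding with one drug alone or a fixed anchor-drug dose plus five library-drug doses (not always all listed) in √10 steps, and nuclei were counted on 4× images. Relative viability is the ratio of nuclei in treated wells to nuclei in vehicle wells, taken as the median of duplicate plates.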

[2] = compound: CC1=C(C=CC(=C1)[N+](=O)[O-])NS(=O)(=O)C2=C(C=CC(=C2)Cl)Cl [FH535] + Nc1ncn([C@H]2C[C@H](O)[C@@H](CO)O2)c(=O)n1 [Decitabine] (partner 2 µM)
Summary of the method: as §1

[3] = compound: CC1=C(C=CC(=C1)[N+](=O)[O-])NS(=O)(=O)C2=C(C=CC(=C2)Cl)Cl [FH535] + O=C(c1cc(Cc2n[nH]c(=O)c3ccccc23)ccc1F)N1CCN(C(=O)C2CC2)CC1 [Olaparib] (partner 8 µM)
Summary of the method: as §1

[4] = compound: CC1=C(C=CC(=C1)[N+](=O)[O-])NS(=O)(=O)C2=C(C=CC(=C2)Cl)Cl [FH535] + O=C(CCCCCCC(=O)Nc1ccccc1)NO [Vorinostat] (partner 1 µM)
Summary of the method: as §1

[5] = compound: CC1=C(C=CC(=C1)[N+](=O)[O-])NS(=O)(=O)C2=C(C=CC(=C2)Cl)Cl [FH535] + Cc1nc(NC(=O)N2CCC[C@H]2C(N)=O)sc1-c1ccnc(C(C)(C)C(F)(F)F)c1 [Alpelisib] (partner 2 µM)
Summary of the method: as §1

Cell Line | relative viability ([1]; first compound 0.04 µM) | relative viability ([1]; first compound 0.1265 µM) | relative viability ([1]; first compound 0.4 µM) | relative viability ([1]; first compound 1.265 µM) | relative viability ([2]; first compound 0.04 µM) | relative viability ([2]; first compound 0.1265 µM) | relative viability ([2]; first compound 0.4 µM) | relative viability ([2]; first compound 1.265 µM) | relative viability ([3]; first compound 0.04 µM) | relative viability ([3]; first compound 0.1265 µM) | relative viability ([3]; first compound 0.4 µM) | relative viability ([3]; first compound 1.265 µM) | relative viability ([4]; first compound 0.04 µM) | relative viability ([4]; first compound 0.1265 µM) | relative viability ([4]; first compound 0.4 µM) | relative viability ([4]; first compound 1.265 µM) | relative viability ([5]; first compound 0.04 µM) | relative viability ([5]; first compound 0.1265 µM) | relative viability ([5]; first compound 0.4 µM) | relative viability ([5]; first compound 1.265 µM)
NCI-H650 | 0.926 | 0.956 | 0.915 | 0.68 | 0.315 | 0.359 | 0.333 | 0.32 | 0.384 | 0.341 | 0.369 | 0.249 | 0.342 | 0.383 | 0.385 | 0.365 | 0.975 | 1.06 | 1.12 | 0.774
NCI-H2009 | 1 | 1 | 0.955 | 0.836 | 0.339 | 0.363 | 0.434 | 0.391 | 0.666 | 0.652 | 0.662 | 0.552 | 0.732 | 0.762 | 0.693 | 0.602 | 1.15 | 1.16 | 1.17 | 0.959
EPLC-272H | 0.301 | 0.366 | 0.353 | 0.308 | 0.328 | 0.4 | 0.412 | 0.377 | 0.766 | 0.92 | 0.849 | 0.636 | 0.442 | 0.42 | 0.437 | 0.406 | 0.951 | 0.978 | 1.02 | 0.963
NCI-H596 | 0.499 | 0.507 | 0.454 | 0.507 | 0.983 | 1.06 | 1 | 0.976 | 0.725 | 0.815 | 0.733 | 0.598 | 0.579 | 0.511 | 0.569 | 0.544 | 0.527 | 0.487 | 0.481 | 0.487
NCI-H3122 | 0.199 | 0.191 | 0.188 | 0.189 | 0.338 | 0.393 | 0.46 | 0.413 | 0.631 | 0.6 | 0.581 | 0.48 | 0.901 | 1.1 | 0.979 | 0.966 | 0.715 | 0.782 | 0.829 | 0.745
NCI-H2085 | 0.926 | 1.02 | 0.804 | 0.677 | 0.542 | 0.512 | 0.572 | 0.431 | 0.818 | 0.713 | 0.749 | 0.571 | 0.815 | 0.849 | 0.659 | 0.62 | 0.959 | 0.977 | 0.941 | 0.675
NCI-H441 | 0.232 | 0.254 | 0.231 | 0.257 | 0.221 | 0.263 | 0.265 | 0.252 | 0.516 | 0.501 | 0.459 | 0.439 | 0.733 | 0.59 | 0.843 | 0.757 | 0.529 | 0.638 | 0.686 | 0.605
